# According to patent US20050277161A1, “Phosphopeptide antigens associated with MHC molecules” (priority 2004, published 2005):
# Non-standard residues stand in square brackets, D forms with d. No end group written: not given here. pS = N[C@@H](COP(=O)(O)O)C(=O)O
# System: COV413.AAD.A4 ovarian carcinoma, DM331.AAD.A4 and SLM2.AAD.A1 melanomas, MCF7.AAD.A2 and MDAMB231.AAD breast carcinomas, and JY EBV-BLCL
# Assay: Recognition of naturally processed phosphopeptides on cancer cells by phosphopeptide-specific CTL (murine IFNγ ELISA)
# Format: cell-based
# Details: for recognition of the phosphopeptide on cancer cell lines by phosphopeptide-specific CTL (murine IFNγ in supernatant): murine CTL lines 50,000/well incubated 24 hours with 25,000 cancer cells/well, ovarian carcinoma, melanoma and breast carcinoma lines; for recognition of the phosphopeptide on the control cell line by phosphopeptide-specific CTL (murine IFNγ in supernatant): murine CTL lines 50,000/well incubated 24 hours with 25,000 cells/well, control JY EBV-BLCL
# Description: FIG. 1, comprising FIGS. 1A and 1B, is a graphic illustration of the recognition of naturally processed and presented phosphorylated peptides on cancer cells by the phosphopeptide-specific CTL. Phosphopeptide-specific CTL were incubated with the following cancer cell lines or EBV-transformed B lymphoblastoid cell lines (BLCL): COV413.AAD.A4 ovarian carcinoma, DM331 .AAD.A4 and SLM2.AAD.A1 melanomas, MCF7.AAD.A2 and MDAMB231.AAD breast carcinomas, and JY EBV-BLCL. Supernatants were harvested and evaluated for the presence of murine IFNγ (produced by murine CTL lines). […] The ordinate indicates murine IFNγ in pg/ml. The abscissa indicates each cell line.
# CTL specific for two of the antigen peptides were generated by long term culture with the peptides. Two CTL lines specific for the antigen peptide GLLGpSPVRA, lines 6850 and 6960, SEQ ID NO: 13, and two CTL lines specific for the antigen peptide RVApSPTSGV, SEQ ID NO: 14, lines 5183 and 63 were used to detect these two antigen peptides on cancer cells. The phosphopeptide-specific CTL (50,000 CTL/well) were incubated 24 hours with the following cancer cell lines or EBV-transformed B lymphoblastoid cell lines (BLCL) (25,000 cells/well): COV413.AAD.A4 ovarian carcinoma, DM331.AAD.A4 and SLM2.AAD.A1 melanomas, MCF7.AAD.A2 and MDAMB231.AAD breast carcinomas, and JY EBV-BLCL. Supernatants were harvested 24 hours later and evaluated for the presence of murine IFNγ (produced by murine CTL lines) by ELISA (eBioscience Ready-Set-go murine IFNγ ELISA kit).
substance,measurement,value
GLLGpSPVRA (GLLG[pS]PVRA; listed as Homo sapiens) [phosphopeptide from CDC25b:p63; HLA-A2.1],recognition of the phosphopeptide on cancer cell lines by phosphopeptide-specific CTL (murine IFNγ in supernatant),recognize the phosphopeptide on all the cancer cell lines
same,recognition of the phosphopeptide on the control cell line by phosphopeptide-specific CTL (murine IFNγ in supernatant),not the control cell line
RVApSPTSGV (RVA[pS]PTSGV; listed as Homo sapiens) [phosphopeptide from Insulin receptor substrate-2; HLA-A2.1],recognition of the phosphopeptide on cancer cell lines by phosphopeptide-specific CTL (murine IFNγ in supernatant),recognize the phosphopeptide on all the cancer cell lines
same,recognition of the phosphopeptide on the control cell line by phosphopeptide-specific CTL (murine IFNγ in supernatant),not the control cell line
